The record followed here is patent publication US20240344059A1, “Gene Editing of Regulatory Elements” (Vertex Pharmaceuticals Incorporated, priority 2021, published 2024).

In assay [1] the test system is CUG RNA foci in primary DM1 patient myoblasts / myotubes. The experiment in a line: FISH staining of CUG RNA foci (SpCas9 sgRNA pairs). Type of assay: cell-based, human. The settings on record: DM1 patient myotubes nucleofected with SpCas9 sgRNA pairs, Group 5 vs Group 6. Here is the method: Primary myoblasts were fixed for 15 min with 4% paraformaldehyde (PFA) and washed five times with 1×PBS for 10 min each at room temperature. Before staining, cells were permeabilized with 0.5% triton X-100 in 1×PBS for 5 min at room temperature, and then washed with 30% formamide and 2× saline-sodium citrate (SSC) mixture for 10 min at room temperature. Cells were then stained with 1 ng/μL of Cy3-PNA(CAG)5 probe (PNA Bio, F5001) diluted in 30% formamide, 2×SSC, 2 μg/mL BSA, 66 μg/mL yeast tRNA, and 2 mM vanadyl complex for 15 min at 80° C. Following probe staining, cells were then washed in 30% formamide and 2×SSC mixture for 30 min at 42° C., then washed in 30% formamide and 2×SSC mixture for 30 min at 37° C., and then washed in 1×SSC solution for 10 min at room temperature, and finally washed in 1×PBS for 10 min at room temperature. For staining of myotube nuclei, cells were stained with anti-Myogenin antibody diluted in 1% bovine serum albumin (BSA) for overnight at 4° C. and washed twice with 1×PBS for 10 min each at room temperature. Cells were then incubated with the secondary antibody goat anti-rabbit Alexa 647 (Thermo Fisher, A32728) diluted in 1% BSA for 1 hr at room temperature and washed twice with 1×PBS for 10 min each at room temperature. […] RNA foci quantifications were accomplished with a customized analysis module of the MetaXpress program (Molecular Devices). […]

For another assay, the system named is DMPK mRNA. In words: DMPK mRNA expression by ddPCR (SaCas9/SluCas9 sgRNA pairs). Type of assay: cell-based, human. The settings on record: DM1 myotubes, 3 μM DNA-PKi Compound 6 for 48 h. The source says: mRNA of DM1 myotubes was isolated with the Kingfisher Flex purification system (Thermal Fisher) in 96-well format following the manufacturer's instruction. cDNA was synthesized with SuperScript™ IV VILO™ Master Mix with ezDNase™ Enzyme (Thermal Fisher) following mRNA isolation.
The primers and probes of ddPCR for hDMPK and GAPDH were pre-designed by Fisher Scientifics qPCR assays (Hs00266705_g1 and Hs01094329_m1). For DMPK expression, one target primer/probe set was used to detect DMPK expression levels, and one reference primer/probe set was used to detect GAPDH expression levels. The 24 μL of ddPCR reaction consisted of 12 μL of Supermix for Probes (no dUTP) (Bio-Rad Laboratories), 1 μL of Reference primers mix (21.6 μM), 1 μL of Reference probe (6 μM), 1 μL of Target primers mix (21.6 μM), 1 μL of Target probe (6 μM), 2 μL of H2O and 6 μL of sample genomic DNA. Droplets were generated using probe oil with the QX200 Droplet Generator (Bio-Rad Laboratories). […] The cycled plate was then transferred and read in the FAM and HEX channels using the Bio-Rad QX200 Droplet Reader (Bio-Rad Laboratories). ddPCR analysis was performed with the Bio-Rad QuantaSoft Pro Software. […]

Regarding `Cc1ccnc(N[C@H]2CC[C@@H](Oc3cc(N4CCOCC4)cc4nonc34)CC2)n1` [Compound 6], the “foci-free myonuclei, DNA-PKi-treated versus vehicle-treated” value in assay [1] is recorded as “substantially higher”. In the assay with DMPK mRNA, the “hDMPK mRNA reduction, DNA-Pki treatment group versus DMSO group” value was “more dramatic hDMPK mRNA reduction”.
